As usually defined, the IC50 is the concentration at which inhibition is half-maximal.

One experiment deals with Nav 1.7 (Homo sapiens (Human), UniProt Q15858). Description: in-vitro Nav 1.7 PX data. It counts as cell-based. Conditions: PatchXpress (PX), in vitro.
Sequence of Nav 1.7 (Q15858 whole entry): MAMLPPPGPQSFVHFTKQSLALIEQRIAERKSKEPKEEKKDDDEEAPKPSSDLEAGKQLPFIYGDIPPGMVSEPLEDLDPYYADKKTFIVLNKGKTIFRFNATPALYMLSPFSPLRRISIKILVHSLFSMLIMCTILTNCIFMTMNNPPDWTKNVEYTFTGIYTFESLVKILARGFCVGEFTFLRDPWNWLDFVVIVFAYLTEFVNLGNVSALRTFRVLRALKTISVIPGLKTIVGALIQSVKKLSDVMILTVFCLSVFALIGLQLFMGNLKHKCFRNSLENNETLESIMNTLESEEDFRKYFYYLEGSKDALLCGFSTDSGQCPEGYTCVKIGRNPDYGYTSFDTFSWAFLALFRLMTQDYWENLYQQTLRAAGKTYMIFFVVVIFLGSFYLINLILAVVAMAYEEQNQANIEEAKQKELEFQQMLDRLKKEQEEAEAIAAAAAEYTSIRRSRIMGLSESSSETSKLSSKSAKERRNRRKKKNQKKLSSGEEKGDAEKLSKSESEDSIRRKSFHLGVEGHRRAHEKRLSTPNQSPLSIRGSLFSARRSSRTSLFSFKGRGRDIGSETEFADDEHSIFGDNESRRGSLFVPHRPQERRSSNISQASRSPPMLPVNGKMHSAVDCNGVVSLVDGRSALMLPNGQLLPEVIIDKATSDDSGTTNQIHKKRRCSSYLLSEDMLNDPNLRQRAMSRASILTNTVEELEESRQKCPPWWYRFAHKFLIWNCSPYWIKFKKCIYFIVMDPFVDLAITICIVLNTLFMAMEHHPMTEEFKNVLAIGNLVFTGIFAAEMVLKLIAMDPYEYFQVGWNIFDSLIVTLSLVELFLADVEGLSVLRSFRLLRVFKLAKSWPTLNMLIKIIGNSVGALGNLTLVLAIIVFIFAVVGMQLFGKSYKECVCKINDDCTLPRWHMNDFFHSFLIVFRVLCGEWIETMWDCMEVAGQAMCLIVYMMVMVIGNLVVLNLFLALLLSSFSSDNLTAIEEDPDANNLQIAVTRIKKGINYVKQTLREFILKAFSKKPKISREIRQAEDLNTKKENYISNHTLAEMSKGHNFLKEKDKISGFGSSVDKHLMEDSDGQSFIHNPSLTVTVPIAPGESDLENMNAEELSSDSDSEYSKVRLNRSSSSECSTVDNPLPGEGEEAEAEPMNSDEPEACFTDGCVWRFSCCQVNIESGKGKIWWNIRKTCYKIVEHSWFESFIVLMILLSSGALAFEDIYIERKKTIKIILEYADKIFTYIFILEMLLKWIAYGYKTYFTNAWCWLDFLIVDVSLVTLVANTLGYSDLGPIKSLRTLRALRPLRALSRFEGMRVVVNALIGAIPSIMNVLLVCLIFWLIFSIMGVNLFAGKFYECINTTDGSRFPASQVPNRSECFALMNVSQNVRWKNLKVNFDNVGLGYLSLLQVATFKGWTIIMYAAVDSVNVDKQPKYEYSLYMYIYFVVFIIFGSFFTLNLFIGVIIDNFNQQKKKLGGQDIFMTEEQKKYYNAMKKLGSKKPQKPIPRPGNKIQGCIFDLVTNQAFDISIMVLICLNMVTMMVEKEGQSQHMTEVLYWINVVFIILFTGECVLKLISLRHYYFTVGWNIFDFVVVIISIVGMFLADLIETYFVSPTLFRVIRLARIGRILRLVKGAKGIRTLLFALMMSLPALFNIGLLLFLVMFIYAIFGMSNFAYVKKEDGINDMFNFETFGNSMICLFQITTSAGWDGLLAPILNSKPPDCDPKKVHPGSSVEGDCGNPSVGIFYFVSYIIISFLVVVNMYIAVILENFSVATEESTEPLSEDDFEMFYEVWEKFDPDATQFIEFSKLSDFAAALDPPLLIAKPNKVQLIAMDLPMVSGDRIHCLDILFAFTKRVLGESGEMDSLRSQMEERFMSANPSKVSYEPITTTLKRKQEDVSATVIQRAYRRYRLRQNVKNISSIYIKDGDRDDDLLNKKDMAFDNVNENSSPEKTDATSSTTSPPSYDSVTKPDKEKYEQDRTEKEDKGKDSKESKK
As to `COc1cc(-c2ccc(C)c(Cl)c2)c(F)cc1-c1nccc2cc(S(=O)(=O)Nc3ccon3)ccc12` [Example 91, 1-(3′-chloro-2-fluoro-5-methoxy-4′-methyl-4-biphenylyl)-N-3-isoxazolyl-6-isoquinolinesulfonamide], the IC50 amounted to 101 nM.
Still for that read-out and setting: with `COc1cc(-c2cc(F)cnc2OC)c(F)cc1-c1nccc2cc(S(=O)(=O)Nc3ncccn3)ccc12` [Example 92, 1-(5-fluoro-4-(5-fluoro-2-methoxy-3-pyridinyl)-2-methoxyphenyl)-N-2-pyrimidinyl-6-isoquinolinesulfonamide] the figure was 278 nM; with `COc1cc(-c2cc(F)cnc2OC)c(F)cc1-c1nccc2cc(S(=O)(=O)Nc3ccon3)ccc12` [Example 93, 1-(5-fluoro-4-(5-fluoro-2-methoxy-3-pyridinyl)-2-methoxyphenyl)-N-3-isoxazolyl-6-isoquinolinesulfonamide], 67.7 nM; with `COc1cc(-c2ccc(F)c(C)c2)c(Cl)cc1-c1nccc2cc(S(=O)(=O)Nc3ccon3)ccc12` [Example 94, 1-(2-chloro-4′-fluoro-5-methoxy-3′-methyl-4-biphenylyl)-N-3-isoxazolyl-6-isoquinolinesulfonamide], 50.6 nM.
`COc1cc(-c2ccc(Cl)c(F)c2)c(F)cc1-c1nccc2cc(S(=O)(=O)Nc3ccon3)ccc12` [Example 95, 1-(4′-chloro-2,3′-difluoro-5-methoxy-4-biphenylyl)-N-3-isoxazolyl-6-isoquinolinesulfonamide] gave a 50% inhibitory concentration (IC50) of 69 nM.
Same read-out and setting: with `COc1cc(-c2ccc(C)c(Cl)c2)c(Cl)cc1-c1nccc2cc(S(=O)(=O)Nc3ccon3)ccc12` [Example 96, 1-(2,3′-dichloro-5-methoxy-4′-methyl-4-biphenylyl)-N-3-isoxazolyl-6-isoquinolinesulfonamide] the figure was 73.8 nM.
The same measure, in the same setting: the same measure for `COc1cc(-c2cccc(Cl)c2)c(F)cc1-c1nccc2cc(S(=O)(=O)Nc3ncccn3)ccc12` [Example 97, 1-(3′-chloro-2-fluoro-5-methoxy-4-biphenylyl)-N-2-pyrimidinyl-6-isoquinolinesulfonamide]: 111 nM; for `COc1cc(-c2cc(F)cc(F)c2)c(F)cc1-c1nccc2cc(S(=O)(=O)Nc3ccon3)ccc12` [Example 98, N-3-isoxazolyl-1-(2,3′,5′-trifluoro-5-methoxy-4-biphenylyl)-6-isoquinolinesulfonamide]: 34.5 nM; for `COc1cc(-c2cc(F)cnc2OC)c(F)cc1-c1nccc2cc(S(=O)(=O)Nc3ccsn3)ccc12` [Example 99, 1-(5-fluoro-4-(5-fluoro-2-methoxy-3-pyridinyl)-2-methoxyphenyl)-N-3-isothiazolyl-6-isoquinolinesulfonamide]: 66.3 nM.

The experiment is the same for the next values; noted with them: in-vitro Nav 1.7 PX data.
The molecule `COc1cc(C#N)c(-c2cc(F)cc(F)c2)cc1-c1nccc2cc(S(=O)(=O)Nc3ccon3)ccc12` [Example 139, 1-(6-cyano-3′,5′-difluoro-4-methoxy-3-biphenylyl)-N-3-isoxazolyl-6-isoquinolinesulfonamide] had an IC50 of 15300 nM.
Same read-out and setting: with `COc1cc(-c2cc(F)cc(F)c2)ccc1-c1nccc2cc(S(=O)(=O)Nc3cnccn3)ccc12` [Example 140, 1-(3′,5′-difluoro-3-methoxy-4-biphenylyl)-N-2-pyrazinyl-6-isoquinolinesulfonamide] the figure was 652 nM; with `COc1cc(-c2cc(F)cc(F)c2)ccc1-c1nccc2cc(S(=O)(=O)Nc3ccccn3)ccc12` [Example 141, 1-(3′,5′-difluoro-3-methoxy-4-biphenylyl)-N-2-pyridinyl-6-isoquinolinesulfonamide], 1010 nM; with `COc1cc(-c2cc(F)cc(F)c2)ccc1-c1nccc2cc(S(=O)(=O)Nc3ncc(C(F)(F)F)o3)ccc12` [Example 143, 1-(3′,5′-difluoro-3-methoxy-4-biphenylyl)-N-(5-(trifluoromethyl)-1,3-oxazol-2-yl)-6-isoquinolinesulfonamide], 3220 nM.
Same read-out and setting: the same measure for `COc1cc(C#N)c(-c2cc(F)cc(F)c2)cc1-c1nccc2cc(S(=O)(=O)Nc3ccncn3)ccc12` [Example 145, 1-(6-cyano-3′,5′-difluoro-4-methoxy-3-biphenylyl)-N-4-pyrimidinyl-6-isoquinolinesulfonamide]: 9110 nM.
`COc1cc(-c2cccc(C(F)(F)F)c2)c(C#N)cc1-c1nccc2cc(S(=O)(=O)Nc3ccon3)ccc12` [Example 148, 1-(2-cyano-5-methoxy-3′-(trifluoromethyl)-4-biphenylyl)-N-3-isoxazolyl-6-isoquinolinesulfonamide] registered an IC50 of 28.6 nM.
Consider `COc1cc(NS(=O)(=O)c2ccc3c(-c4ccc(-c5cc(F)cc(F)c5)cc4OC)nccc3c2)no1` [Example 149, 1-(3′,5′-difluoro-3-methoxy-4-biphenylyl)-N-(5-methoxy-3-isoxazolyl)-6-isoquinolinesulfonamide], for which the IC50 is 1460 nM.
`COc1cc(C#N)c(-c2cc(F)cc(F)c2)cc1-c1nccc2cc(S(=O)(=O)Nc3nncs3)ccc12` [Example 150, 1-(6-cyano-3′,5′-difluoro-4-methoxy-3-biphenylyl)-N-1,3,4-thiadiazol-2-yl-6-isoquinolinesulfonamide]: inhibition was half-maximal at 6000 nM (IC50).
Turning to `COc1ncc(-c2ccccc2)cc1-c1nccc2cc(S(=O)(=O)Nc3ccncn3)ccc12` [Example 152, 1-(2-methoxy-5-phenyl-3-pyridinyl)-N-4-pyrimidinyl-6-isoquinolinesulfonamide], inhibition was half-maximal at 2440 nM (IC50).
For `Cc1ccc(OCC2CC2)cc1-c1nccc2cc(S(=O)(=O)Nc3ccncn3)ccc12` [Example 153, 1-(5-(cyclopropylmethoxy)-2-methylphenyl)-N-4-pyrimidinyl-6-isoquinolinesulfonamide], the IC50 is 7680 nM.

The same experiment, now with this note: in-vitro PX data.
`COc1cc(-c2ccc(Cl)c(F)c2)c(Cl)cc1-c1nccc2cc(S(=O)(=O)Nc3ccon3)ccc12` [Example 101, 1-(2,4′-dichloro-3′-fluoro-5-methoxy-4-biphenylyl)-N-3-isoxazolyl-6-isoquinolinesulfonamide] showed an IC50 of 73.9 nM.
The same measure, in the same setting: the same measure for `COc1cc(-c2cccc(C(F)(F)F)c2)c(F)cc1-c1ncnc2cc(S(=O)(=O)Nc3ccon3)ccc12` [Example 102, 4-(2-fluoro-5-methoxy-3′-(trifluoromethyl)-4-biphenylyl)-N-3-isoxazolyl-7-quinazolinesulfonamide]: 22.9 nM; for `COc1cc(-c2ccc(Cl)c(C)c2)c(F)cc1-c1ncnc2cc(S(=O)(=O)Nc3ccon3)ccc12` [Example 103, 4-(4′-chloro-2-fluoro-5-methoxy-3′-methyl-4-biphenylyl)-N-3-isoxazolyl-7-quinazolinesulfonamide]: 24 nM; for `COc1cc(-c2cccc(Cl)c2)c(F)cc1-c1ncnc2cc(S(=O)(=O)Nc3ccon3)ccc12` [Example 104, 4-(3′-chloro-2-fluoro-5-methoxy-4-biphenylyl)-N-3-isoxazolyl-7-quinazolinesulfonamide]: 8.4 nM.
Take `COc1cc(-c2cc(F)cnc2OC)c(Cl)cc1-c1nccc2cc(S(=O)(=O)Nc3ccon3)ccc12` [Example 105, 1-(5-chloro-4-(5-fluoro-2-methoxy-3-pyridinyl)-2-methoxyphenyl)-N-3-isoxazolyl-6-isoquinolinesulfonamide]: the IC50 came out at 29.3 nM.
Still for that read-out and setting: with `COc1cc(-c2cccc(F)c2)c(C#N)cc1-c1nccc2cc(S(=O)(=O)Nc3ncccn3)ccc12` [Example 109, 1-(2-cyano-3′-fluoro-5-methoxy-4-biphenylyl)-N-2-pyrimidinyl-6-isoquinolinesulfonamide] the figure was 241 nM.
As to `COc1cc(Br)c(Cl)cc1-c1nccc2cc(S(=O)(=O)Nc3ccon3)ccc12` [Example 117, 1-(4-bromo-5-chloro-2-methoxyphenyl)-N-3-isoxazolyl-6-isoquinolinesulfonamide], it took 108 nM to reach half-maximal inhibition (IC50).
Molecule `COc1cc(-c2ccc(Cl)c(C)c2)c(Cl)cc1-c1nccc2cc(S(=O)(=O)Nc3ccon3)ccc12` [Example 119, 1-(2,4′-dichloro-5-methoxy-3′-methyl-4-biphenylyl)-N-3-isoxazolyl-6-isoquinolinesulfonamide] yielded an IC50 of 73.6 nM.
As for `COc1cc(-c2cc(F)cc(F)c2)ccc1-c1nccc2cc(S(=O)(=O)Nc3cc(C)on3)ccc12` [Example 126, 1-(3′,5′-difluoro-3-methoxy-4-biphenylyl)-N-(5-methyl-3-isoxazolyl)-6-isoquinolinesulfonamide], inhibition was half-maximal at 4190 nM (IC50).
Consider `COc1cc(-c2cc(F)cc(F)c2)ccc1-c1nccc2cc(S(=O)(=O)Nc3ccno3)ccc12` [Example 128, 1-(3′,5′-difluoro-3-methoxy-4-biphenylyl)-N-5-isoxazolyl-6-isoquinolinesulfonamide], for which the IC50 came to 3510 nM.
For `COc1cc(-c2cc(F)cc(F)c2)ccc1-c1nccc2cc(S(=O)(=O)Nc3cncc(C)n3)ccc12` [Example 131, 1-(3′,5′-difluoro-3-methoxy-4-biphenylyl)-N-(6-methyl-2-pyrazinyl)-6-isoquinolinesulfonamide], it took 1630 nM to reach half-maximal inhibition (IC50).
The same measure, in the same setting: with `COc1cc(-c2cc(F)cc(F)c2)ccc1-c1nccc2cc(S(=O)(=O)Nc3ncc(C#N)s3)ccc12` [Example 132, N-(5-cyano-1,3-thiazol-2-yl)-1-(3′,5′-difluoro-3-methoxy-4-biphenylyl)-6-isoquinolinesulfonamide] the figure was 695 nM; with `COc1cc(-c2cc(F)cc(F)c2)ccc1-c1nccc2cc(S(=O)(=O)Nc3nnc(C)s3)ccc12` [Example 133, 1-(3′,5′-difluoro-3-methoxy-4-biphenylyl)-N-(5-methyl-1,3,4-thiadiazol-2-yl)-6-isoquinolinesulfonamide], 1560 nM; with `COc1nsc(NS(=O)(=O)c2ccc3c(-c4ccc(-c5cc(F)cc(F)c5)cc4OC)nccc3c2)n1` [Example 134, 1-(3′,5′-difluoro-3-methoxy-4-biphenylyl)-N-(3-methoxy-1,2,4-thiadiazol-5-yl)-6-isoquinolinesulfonamide], 1280 nM.
`COc1cc(-c2cc(F)cc(F)c2)ccc1-c1nccc2cc(S(=O)(=O)NC(C)=O)ccc12` [Example 136, N-((1-(3′,5′-difluoro-3-methoxy-4-biphenylyl)-6-isoquinolinyl)sulfonyl)acetamide] displayed an IC50 of 11200 nM.

The record behind these values is patent US9776995B2, “Bicyclic sulfonamide compounds as sodium channel inhibitors” (AMGEN INC., priority 2013, dated 2017).
